The values below come from ChEMBL document CHEMBL6092162, “Identification of novel and potent triazoles targeting CYP51 for antifungal: Design, synthesis, and biological study” (Eur J Med Chem, 2024).

Values after ≈ are worked out from the molar mass of the structure shown.

The test system of one experiment is Candida albicans. Briefly: Antifungal activity against Candida albicans SC5314 assessed as inhibition of fungal growth by CLSI M27-A3 guidelines based method. The experiment is classed as functional.
Conditions: not given
Broadly, the MIC80 is the lowest concentration that inhibits either 80% of growth or 80% of the strains tested, depending on the study. For `CN(Cc1ccc(N2CCN(Cc3ccc(C#N)cc3)CC2)cc1)CC(O)(Cn1cncn1)c1ccc(F)cc1F` (centres undefined), the MIC80 worked out at 0.05 µg/mL (≈ 0.0897 µM).

Consider `Cc1ccc(CN2CCN(c3ccc(CN(C)CC(O)(Cn4cncn4)c4ccc(F)cc4F)cc3)CC2)cc1` (centres undefined), for which the MIC80 amounted to 0.2 µg/mL (≈ 0.366 µM).

On to `CN(Cc1ccc(N2CCN(Cc3c(F)cccc3Br)CC2)cc1)CC(O)(Cn1cncn1)c1ccc(F)cc1F` (centres undefined), for which the MIC80 was found to be 0.013 µg/mL (≈ 0.0207 µM).

For the compound `CN(Cc1ccc(N2CCN(C(=O)c3ccccc3)CC2)cc1)CC(O)(Cn1cncn1)c1ccc(F)cc1F` (centres undefined), the MIC80 turned out to be 0.025 µg/mL (≈ 0.0457 µM).

For `CN(Cc1ccc(N2CCN(Cc3ccc([N+](=O)[O-])cc3)CC2)cc1)CC(O)(Cn1cncn1)c1ccc(F)cc1F` (centres undefined), the MIC80 is 0.025 µg/mL (≈ 0.0433 µM).

`CN(Cc1ccc(N2CCN(C(=O)C3CC3)CC2)cc1)CC(O)(Cn1cncn1)c1ccc(F)cc1F` (centres undefined): the MIC80 is 0.25 µg/mL (≈ 0.49 µM).

Regarding `CC(=O)N1CCN(c2ccc(CN(C)CC(O)(Cn3cncn3)c3ccc(F)cc3F)cc2)CC1` (centres undefined), the MIC80 was 0.5 µg/mL (≈ 1.03 µM).

For a further experiment, the system named is Candida albicans. Kind of experiment: Antifungal activity against Candida albicans GIM 2.194 assessed as inhibition of fungal growth by CLSI M27-A3 guidelines based method. Format: functional.
Conditions: not given
`CN(Cc1ccc(N2CCN(Cc3ccc(C#N)cc3)CC2)cc1)CC(O)(Cn1cncn1)c1ccc(F)cc1F` (centres undefined): the MIC80 was found to be 0.05 µg/mL (≈ 0.0897 µM).

For the compound `Cc1ccc(CN2CCN(c3ccc(CN(C)CC(O)(Cn4cncn4)c4ccc(F)cc4F)cc3)CC2)cc1` (centres undefined), the MIC80 amounted to 0.2 µg/mL (≈ 0.366 µM).

As for `CN(Cc1ccc(N2CCN(Cc3c(F)cccc3Br)CC2)cc1)CC(O)(Cn1cncn1)c1ccc(F)cc1F` (centres undefined), the MIC80 was 0.1 µg/mL (≈ 0.159 µM).

For `CN(Cc1ccc(N2CCN(C(=O)c3ccccc3)CC2)cc1)CC(O)(Cn1cncn1)c1ccc(F)cc1F` (centres undefined), the MIC80 is 0.013 µg/mL (≈ 0.0238 µM).

Turning to `CN(Cc1ccc(N2CCN(Cc3ccc([N+](=O)[O-])cc3)CC2)cc1)CC(O)(Cn1cncn1)c1ccc(F)cc1F` (centres undefined), the MIC80 was 0.05 µg/mL (≈ 0.0866 µM).

As to `CN(Cc1ccc(N2CCN(C(=O)C3CC3)CC2)cc1)CC(O)(Cn1cncn1)c1ccc(F)cc1F` (centres undefined), the MIC80 stood at 1 µg/mL (≈ 1.96 µM).

In the case of `CC(=O)N1CCN(c2ccc(CN(C)CC(O)(Cn3cncn3)c3ccc(F)cc3F)cc2)CC1` (centres undefined), the MIC80 stood at 0.1 µg/mL (≈ 0.206 µM).

For a further experiment, the system named is Candida tropicalis. Briefly: Antifungal activity against Candida tropicalis GIM 2.183 assessed as inhibition of fungal growth by CLSI M27-A3 guidelines based method. The experiment is classed as functional.
Conditions: not given
With `CN(Cc1ccc(N2CCN(Cc3ccc(C#N)cc3)CC2)cc1)CC(O)(Cn1cncn1)c1ccc(F)cc1F` (centres undefined), the MIC80 turned out to be 0.05 µg/mL (≈ 0.0897 µM).

Consider `Cc1ccc(CN2CCN(c3ccc(CN(C)CC(O)(Cn4cncn4)c4ccc(F)cc4F)cc3)CC2)cc1` (centres undefined), for which the MIC80 worked out at 0.2 µg/mL (≈ 0.366 µM).

As for `CN(Cc1ccc(N2CCN(Cc3c(F)cccc3Br)CC2)cc1)CC(O)(Cn1cncn1)c1ccc(F)cc1F` (centres undefined), the MIC80 turned out to be 0.013 µg/mL (≈ 0.0207 µM).

As to `CN(Cc1ccc(N2CCN(C(=O)c3ccccc3)CC2)cc1)CC(O)(Cn1cncn1)c1ccc(F)cc1F` (centres undefined), the MIC80 turned out to be 0.013 µg/mL (≈ 0.0238 µM).

Consider `CN(Cc1ccc(N2CCN(Cc3ccc([N+](=O)[O-])cc3)CC2)cc1)CC(O)(Cn1cncn1)c1ccc(F)cc1F` (centres undefined), for which the MIC80 turned out to be 0.025 µg/mL (≈ 0.0433 µM).

Regarding `CN(Cc1ccc(N2CCN(C(=O)C3CC3)CC2)cc1)CC(O)(Cn1cncn1)c1ccc(F)cc1F` (centres undefined), the MIC80 is 1 µg/mL (≈ 1.96 µM).

`CC(=O)N1CCN(c2ccc(CN(C)CC(O)(Cn3cncn3)c3ccc(F)cc3F)cc2)CC1` (centres undefined): the MIC80 was 0.5 µg/mL (≈ 1.03 µM).

A further experiment concerns Candida parapsilosis. Kind of experiment: Antifungal activity against Candida parapsilosis GIM 2.190 assessed as inhibition of fungal growth by CLSI M27-A3 guidelines based method. Format: functional. To be noted: Lodderomyces parapsilosis.
As to `CN(Cc1ccc(N2CCN(Cc3ccc(C#N)cc3)CC2)cc1)CC(O)(Cn1cncn1)c1ccc(F)cc1F` (centres undefined), the MIC80 was 0.1 µg/mL (≈ 0.179 µM).

On to `Cc1ccc(CN2CCN(c3ccc(CN(C)CC(O)(Cn4cncn4)c4ccc(F)cc4F)cc3)CC2)cc1` (centres undefined), for which the MIC80 came out at 0.4 µg/mL (≈ 0.732 µM).

For the compound `CN(Cc1ccc(N2CCN(Cc3c(F)cccc3Br)CC2)cc1)CC(O)(Cn1cncn1)c1ccc(F)cc1F` (centres undefined), the MIC80 is 0.013 µg/mL (≈ 0.0207 µM).

As for `CN(Cc1ccc(N2CCN(C(=O)c3ccccc3)CC2)cc1)CC(O)(Cn1cncn1)c1ccc(F)cc1F` (centres undefined), the MIC80 was 0.025 µg/mL (≈ 0.0457 µM).

As to `CN(Cc1ccc(N2CCN(Cc3ccc([N+](=O)[O-])cc3)CC2)cc1)CC(O)(Cn1cncn1)c1ccc(F)cc1F` (centres undefined), the MIC80 amounted to 0.025 µg/mL (≈ 0.0433 µM).

Take `CN(Cc1ccc(N2CCN(C(=O)C3CC3)CC2)cc1)CC(O)(Cn1cncn1)c1ccc(F)cc1F` (centres undefined): the MIC80 is 0.5 µg/mL (≈ 0.979 µM).

Turning to `CC(=O)N1CCN(c2ccc(CN(C)CC(O)(Cn3cncn3)c3ccc(F)cc3F)cc2)CC1` (centres undefined), the MIC80 turned out to be 0.1 µg/mL (≈ 0.206 µM).

Another experiment concerns Nakaseomyces glabratus. Briefly: Antifungal activity against Candida glabrata assessed as inhibition of fungal growth by CLSI M27-A3 guidelines based method. The experiment is classed as functional.
Conditions: not given
In the case of `CN(Cc1ccc(N2CCN(Cc3ccc(C#N)cc3)CC2)cc1)CC(O)(Cn1cncn1)c1ccc(F)cc1F` (centres undefined), the MIC80 is 1.6 µg/mL (≈ 2.87 µM).

With `Cc1ccc(CN2CCN(c3ccc(CN(C)CC(O)(Cn4cncn4)c4ccc(F)cc4F)cc3)CC2)cc1` (centres undefined), the MIC80 is 1.6 µg/mL (≈ 2.93 µM).

Regarding `CN(Cc1ccc(N2CCN(Cc3c(F)cccc3Br)CC2)cc1)CC(O)(Cn1cncn1)c1ccc(F)cc1F` (centres undefined), the MIC80 came out at 0.2 µg/mL (≈ 0.318 µM).

For `CN(Cc1ccc(N2CCN(C(=O)c3ccccc3)CC2)cc1)CC(O)(Cn1cncn1)c1ccc(F)cc1F` (centres undefined), the MIC80 is 1.6 µg/mL (≈ 2.93 µM).

Consider `CN(Cc1ccc(N2CCN(Cc3ccc([N+](=O)[O-])cc3)CC2)cc1)CC(O)(Cn1cncn1)c1ccc(F)cc1F` (centres undefined), for which the MIC80 worked out at 1.6 µg/mL (≈ 2.77 µM).

As to `CN(Cc1ccc(N2CCN(C(=O)C3CC3)CC2)cc1)CC(O)(Cn1cncn1)c1ccc(F)cc1F` (centres undefined), the MIC80 came out at 32 µg/mL (≈ 62.7 µM).

On to `CC(=O)N1CCN(c2ccc(CN(C)CC(O)(Cn3cncn3)c3ccc(F)cc3F)cc2)CC1` (centres undefined), for which the MIC80 came to 16 µg/mL (≈ 33 µM).

A further experiment deals with Pichia kudriavzevii. Briefly: Antifungal activity against Candida krusei GIM 2.1 assessed as inhibition of fungal growth by CLSI M27-A3 guidelines based method. The experiment is classed as functional.
Conditions: not given
For the compound `CN(Cc1ccc(N2CCN(Cc3ccc(C#N)cc3)CC2)cc1)CC(O)(Cn1cncn1)c1ccc(F)cc1F` (centres undefined), the MIC80 stood at 1.6 µg/mL (≈ 2.87 µM).

`Cc1ccc(CN2CCN(c3ccc(CN(C)CC(O)(Cn4cncn4)c4ccc(F)cc4F)cc3)CC2)cc1` (centres undefined): the MIC80 was determined as 0.8 µg/mL (≈ 1.46 µM).

Regarding `CN(Cc1ccc(N2CCN(Cc3c(F)cccc3Br)CC2)cc1)CC(O)(Cn1cncn1)c1ccc(F)cc1F` (centres undefined), the MIC80 worked out at 0.1 µg/mL (≈ 0.159 µM).

With `CN(Cc1ccc(N2CCN(C(=O)c3ccccc3)CC2)cc1)CC(O)(Cn1cncn1)c1ccc(F)cc1F` (centres undefined), the MIC80 is 1.6 µg/mL (≈ 2.93 µM).

Turning to `CN(Cc1ccc(N2CCN(Cc3ccc([N+](=O)[O-])cc3)CC2)cc1)CC(O)(Cn1cncn1)c1ccc(F)cc1F` (centres undefined), the MIC80 was found to be 0.4 µg/mL (≈ 0.692 µM).

Regarding `CN(Cc1ccc(N2CCN(C(=O)C3CC3)CC2)cc1)CC(O)(Cn1cncn1)c1ccc(F)cc1F` (centres undefined), the MIC80 was 32 µg/mL (≈ 62.7 µM).

For the compound `CC(=O)N1CCN(c2ccc(CN(C)CC(O)(Cn3cncn3)c3ccc(F)cc3F)cc2)CC1` (centres undefined), the MIC80 worked out at 16 µg/mL (≈ 33 µM).

For another experiment, the system named is Cryptococcus neoformans. Briefly: Antifungal activity against Cryptococcus neoformans CGMCC 2.3161 assessed as inhibition of fungal growth by CLSI M27-A3 guidelines based method.
Conditions: not given
Format: functional.
Turning to `CN(Cc1ccc(N2CCN(Cc3ccc(C#N)cc3)CC2)cc1)CC(O)(Cn1cncn1)c1ccc(F)cc1F` (centres undefined), the MIC80 was found to be 0.2 µg/mL (≈ 0.359 µM).

As for `Cc1ccc(CN2CCN(c3ccc(CN(C)CC(O)(Cn4cncn4)c4ccc(F)cc4F)cc3)CC2)cc1` (centres undefined), the MIC80 is 3.2 µg/mL (≈ 5.85 µM).

Take `CN(Cc1ccc(N2CCN(Cc3c(F)cccc3Br)CC2)cc1)CC(O)(Cn1cncn1)c1ccc(F)cc1F` (centres undefined): the MIC80 is 0.1 µg/mL (≈ 0.159 µM).

Turning to `CN(Cc1ccc(N2CCN(C(=O)c3ccccc3)CC2)cc1)CC(O)(Cn1cncn1)c1ccc(F)cc1F` (centres undefined), the MIC80 came out at 0.4 µg/mL (≈ 0.732 µM).

In the case of `CN(Cc1ccc(N2CCN(Cc3ccc([N+](=O)[O-])cc3)CC2)cc1)CC(O)(Cn1cncn1)c1ccc(F)cc1F` (centres undefined), the MIC80 was 0.1 µg/mL (≈ 0.173 µM).

Take `CN(Cc1ccc(N2CCN(C(=O)C3CC3)CC2)cc1)CC(O)(Cn1cncn1)c1ccc(F)cc1F` (centres undefined): the MIC80 worked out at 16 µg/mL (≈ 31.3 µM).

Regarding `CC(=O)N1CCN(c2ccc(CN(C)CC(O)(Cn3cncn3)c3ccc(F)cc3F)cc2)CC1` (centres undefined), the MIC80 turned out to be 8 µg/mL (≈ 16.5 µM).
